Like-named read-outs stand apart in the source and are kept apart here.
System: MSSA ATCC 25923
Experiment: Disk diffusion assay (zone of inhibition)
Format: cell-based, Staphylococcus aureus
Settings: for Effect of addition of 5% P80 on zone diameter (average increase): MSSA ATCC 25923, disks containing 30 μg; for zone of inhibition at 30 µg/disc: Staphylococcus aureus, 30 μg in disk, without prediffusion, average of 2 disks
Text: The study was designed to identify conditions that improve oritavancin diffusion in agar and consequently yield a zone diameter ≧15 mm for the CLSI quality control strain MSSA ATCC 25923. Excipients that increased the disk diffusion of oritavancin in agar relative to disks containing only oritavancin were identified and selected for further study. […] A prediffusion step at room temperature was introduced to maximize oritavancin diffusion prior to initiation of bacterial growth. In this step, the antimicrobial disks were placed on agar plates seeded with a bacterial isolate and incubated at room temperature for 3 hours. Plates were then incubated overnight at 37° C. Zone diameters around the disks in which bacterial growth was inhibited were measured with a ruler and reported in millimeters.
Ethanol-sterilized Whatman paper disks (6 mm diameter) were allowed to dry then impregnated with 20 microliters of oritavancin solution containing total amounts ranging from 90 to 360 micrograms. Disks were allowed to dry at room temperature for various times prior to use.
Bacterial suspensions were prepared and adjusted to an optical density of 0.1 at 600 nm. […] The plate was swabbed a second time, perpendicular to the orientation of the first swab. To assess the impact of prediffusion on diameter of inhibition zones, two disks were immediately placed on one half of the plate and the plate was incubated for 3 hours at room temperature. After 3 hours, two additional disks were placed on the other half of the plate then the plate was incubated overnight at 37° C. Zone diameters were measured with a ruler and reported in millimeters. […]
Oritavancin powder was dissolved in freshly-prepared solutions of the indicated excipients at concentrations of 0.625, 1.25, 2.5, 5, and 10 mg/ml (adjusted for potency based on lot 875561L00 purity of 83.1%) by vortexing for a minimum of 5 minutes. Oritavancin solutions in the various excipients, while not visually clear, were free from any apparent particulates as assessed visually. Sterile Oxoid blank disks were impregnated with 20 μl of these oritavancin solutions, resulting in oritavancin disk loads ranging from 12.5 to 200 μg. Unless indicated otherwise, disks were allowed to dry overnight at room temperature prior to use.
[…] Swabbing was continued at a right angle and then at an oblique angle to the first and second swabs. Disks were placed upon the seeded plates with sterile forceps. Plates were then incubated overnight at 37° C. and inhibition zone diameters were measured with a ruler and reported in millimeters.

[1] = read-out: Average zone diameter, S. aureus ATCC 25923, +5% P80
[2] = read-out: Average zone diameter, S. aureus ATCC 25923, Control (without P80)

Row | SMILES | Effect of addition of 5% P80 on zone diameter (average increase) | zone of inhibition at 30 µg/disc (S. aureus ATCC 25923, +5% P80, read-out: Average zone diameter) [mm] | zone of inhibition at 30 µg/disc (S. aureus ATCC 25923, Control (without P80), read-out: Average zone diameter) [mm] | zone of inhibition at 30 µg/disc [1] [mm] | zone of inhibition at 30 µg/disc [2] [mm]
1 | CCCCCCCCCC(=O)N[C@@H](Cc1c[nH]c2ccccc12)C(=O)N[C@H](CC(N)=O)C(=O)N[C@@H](CC(=O)O)C(=O)N[C@@H]1C(=O)NCC(=O)N[C@@H](CCCN)C(=O)N[C@@H](CC(=O)O)C(=O)N[C@H](C)C(=O)N[C@@H](CC(=O)O)C(=O)NCC(=O)N[C@H](CO)C(=O)N[C@@H]([C@H](C)CC(=O)O)C(=O)N[C@@H](CC(=O)c2ccccc2N)C(=O)O[C@@H]1C [Daptomycin] | no effect | 18 | 18.5 | – | –
2 | CCCCCCCCCCNCCN[C@@]1(C)C[C@H](O[C@H]2[C@H](Oc3c4cc5cc3Oc3ccc(cc3Cl)[C@@H](O)[C@@H](NC(=O)[C@@H](CC(C)C)NC)C(=O)N[C@@H](CC(N)=O)C(=O)N[C@H]5C(=O)N[C@H]3C(=O)N[C@H](C(=O)N[C@H](C(=O)O)c5cc(O)c(CNCP(=O)(O)O)c(O)c5-c5cc3ccc5O)[C@H](O)c3ccc(c(Cl)c3)O4)O[C@H](CO)[C@@H](O)[C@@H]2O)O[C@@H](C)[C@H]1O [Telavancin] | – | – | – | 18 | 16.5
3 | CN[C@H](CC(C)C)C(=O)N[C@H]1C(=O)N[C@@H](CC(N)=O)C(=O)N[C@H]2C(=O)N[C@H]3C(=O)N[C@H](C(=O)N[C@H](C(=O)O)c4cc(O)cc(O)c4-c4cc3ccc4O)[C@H](O)c3ccc(c(Cl)c3)Oc3cc2cc(c3O[C@@H]2O[C@H](CO)[C@@H](O)[C@H](O)[C@H]2O[C@H]2C[C@](C)(N)[C@H](O)[C@H](C)O2)Oc2ccc(cc2Cl)[C@H]1O [Vancomycin] | no effect | – | – | 17.5 | 17.5
